Reference: patent US20240067693A1, “POLYPEPTIDES AND USES THEREOF” (MEDIMMUNE LIMITED, priority 2020, published 2024)
Numbered stars: 1 amine (or outer) side, 2 acyl side, 3 side chain; on linkers, the order of the positions; unused ones are H or OH. Bridge positions count the residues as written; N and C are the ends. Square brackets hold non-standard residues; d marks the D form. Side chains are listed from the residue outwards. Peptide text beside a SMILES is read from it. * marks the point of attachment. C20 diacid = O=C(O)CCCCCCCCCCCCCCCCCCC(=O)*; C18 diacid = O=C(O)CCCCCCCCCCCCCCCCC(=O)*; γGlu = O=C(O)[C@H](CCC(=O)[*:2])N[*:1]; Hyp = O=C(O)[C@@H]1C[C@@H](O)CN1; Dab = NCC[C@H](N)C(=O)O; Aib = CC(C)(N)C(=O)O

Columns and labels:
[1] = molecular target: T1, human amylin receptor (calcitonin receptor co-expressed with receptor activity modifying protein, RAMP3) (hAMYR3) (Homo sapiens, UniProt O60896+P30988); test: cAMP production in 1321N1 cells with stable recombinant expression of human amylin receptor (hAMYR3); type: cell-based; conditions: for Ratio (selectivity hAMYR vs hCTR, ratio of EC50 values at the two receptors): EC50 hCTR / EC50 hAMYR3; for EC50: cAMP, 1321N1 cells, assay buffer with 0.1% BSA, read-out: EC50 (pM) hAMYR3
T1 construct: expressed in transfected cells
T1 sequence (P30988 25-474): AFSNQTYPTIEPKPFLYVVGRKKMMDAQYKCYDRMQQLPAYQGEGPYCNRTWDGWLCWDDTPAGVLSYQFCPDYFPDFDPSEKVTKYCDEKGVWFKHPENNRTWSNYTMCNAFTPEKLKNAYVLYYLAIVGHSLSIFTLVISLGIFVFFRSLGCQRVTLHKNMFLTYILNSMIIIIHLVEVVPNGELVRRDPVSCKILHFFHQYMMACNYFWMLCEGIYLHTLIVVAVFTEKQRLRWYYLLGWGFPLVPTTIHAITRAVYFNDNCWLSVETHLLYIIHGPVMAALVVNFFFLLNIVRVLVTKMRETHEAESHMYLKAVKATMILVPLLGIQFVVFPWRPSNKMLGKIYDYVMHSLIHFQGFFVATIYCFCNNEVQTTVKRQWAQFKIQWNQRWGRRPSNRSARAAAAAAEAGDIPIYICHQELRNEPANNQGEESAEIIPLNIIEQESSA
T1 sequence (O60896 24-148 partner): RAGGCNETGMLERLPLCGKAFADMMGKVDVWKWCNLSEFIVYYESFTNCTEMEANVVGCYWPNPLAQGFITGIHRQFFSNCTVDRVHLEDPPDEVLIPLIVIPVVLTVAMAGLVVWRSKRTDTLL
Procedure: (§1) The functional activities of lipidated pramlintide analogue peptides, such as cAMP production, were tested in 1321N1 cell line with stable recombinant expression of human calcitonin receptor (hCTR) or human amylin receptor (calcitonin receptor co-expressed with receptor activity modifying protein, RAMP3) (hAMYR3) or HEK cells with stable recombinant expression of rat calcitonin receptor (rat CTR) or rat amylin receptor (calcitonin receptor co-expressed with receptor activity modifying protein, RAMP3) (Rat AMYR3).
(§2) Cryopreserved cell stock was thawed rapidly in a water-bath, suspended in assay buffer (0.1% BSA (Sigma # A3059) in HBSS (Sigma # H8264) with 25 mM HEPES, pH 7.4 and containing 0.5 mM IB MX (Sigma# 17018)) and spun at 240×g for 5 minutes. Cells were re-suspended in assay buffer at a batch-dependent optimized concentration (e.g. hCTR cells at 0.125×10^5 cells/mL, hAMYR3 cells at 0.125×10^5 cells/mL, rat CTR cells at 1x10^5 cells/mL, rat AMYR3 at 2×10^5 cells/mL).
(§3) The test peptide stock was prepared in DMSO and diluted in assay buffer to reach stated concentrations and transferred in duplicates into a 384-black shallow well microtitre assay plate (Corning # 3676). Cells were added to the assay plate, incubated at room temperature for 30 minutes and the cAMP level measured using cAMP dynamic 2 HTRF kit (Cisbio, Cat # 62AM4PEJ), following the two step protocol as per manufacturer's recommendations. The plates were read on an Envision (Perkin Elmer) using excitation wavelength of 320 nm and emission wavelengths of 620nm & 665 nm.
(§4) Data was transformed to % Delta F as described in the manufacturer's guidelines and analyzed as percent activation of maximal amylin or calcitonin effect by 4-parameter logistic fit to determine EC50 values. The selectivity of a peptide to hAMYR vs hCTR is defined as a ratio of EC50 values at the two receptors.

[2] = molecular target: T2, human calcitonin receptor (hCTR) (Homo sapiens, UniProt P30988); test: cAMP production in 1321N1 cells with stable recombinant expression of human calcitonin receptor (hCTR); type: cell-based; conditions: cAMP, 1321N1 cells, assay buffer with 0.1% BSA; read-out: EC50 (pM) hCTR
T2 construct: expressed in transfected cells
T2 sequence (P30988 25-474): T1 sequence (P30988 25-474)
Procedure: as §1, §2, §3, §4

Ratio (selectivity hAMYR vs hCTR, ratio of EC50 values at the two receptors) [1] | EC50 [1] [pM] | EC50 [2] [pM] | Compound
7 | 256 | 1820 | CC[C@H](C)[C@H](NC(=O)[C@@H]1CCCN1C(=O)CNC(=O)[C@H](Cc1ccccc1)NC(=O)[C@H](CC(N)=O)NC(=O)C(C)(C)NC(=O)[C@H](CO)NC(=O)[C@H](CO)NC(=O)[C@H](Cc1c[nH]cn1)NC(=O)[C@@H](NC(=O)[C@H](CC(C)C)NC(=O)[C@H](Cc1ccccc1)NC(=O)[C@H](CC(N)=O)NC(=O)[C@H](C)NC(=O)[C@H](CC(C)C)NC(=O)[C@H](CCCNC(=N)N)NC(=O)[C@H](CCC(N)=O)NC(=O)[C@@H](NC(=O)[C@H](C)NC(=O)[C@@H]1CSSC[C@H](NC(=O)[C@H](CCCCN)NC(=O)[C@@H](N)CCCCNC(=O)CC[C@H](NC(=O)CCCCCCCCCCCCCCCCC(=O)O)C(=O)O)C(=O)N[C@@H](CC(N)=O)C(=O)N[C@@H]([C@@H](C)O)C(=O)N[C@@H](C)C(=O)N[C@@H]([C@@H](C)O)C(=O)N1)[C@@H](C)O)C(C)C)C(=O)N[C@@H](CC(C)C)C(=O)N1CCC[C@H]1C(=O)N1CCC[C@H]1C(=O)N[C@H](C(=O)N[C@@H](CC(N)=O)C(=O)N[C@H](C(=O)NCC(=O)N[C@@H](CO)C(=O)N[C@@H](CCCNC(=N)N)C(=O)N[C@H](C(=O)N[C@@H](Cc1ccc(O)cc1)C(N)=O)[C@@H](C)O)C(C)C)[C@@H](C)O [Peptide 73, K(γE-C18diacid)K[CNTATC]ATQRLANFLVHSS(Aib)NFGPILPPTNVGSRTY-amide] (H-K([γGlu-C18 diacid])KCNTATCATQRLANFLVHSS[Aib]NFGPILPPTNVGSRTY-NH2; disulfide 3-8; N-terminus assumed)
19 | 445 | 8450 | CC[C@H](C)[C@H](NC(=O)[C@@H]1CCCN1C(=O)CNC(=O)[C@H](Cc1ccccc1)NC(=O)[C@H](CC(N)=O)NC(=O)[C@H](CCN)NC(=O)[C@H](CO)NC(=O)[C@H](CO)NC(=O)[C@H](Cc1c[nH]cn1)NC(=O)C(C)(C)NC(=O)[C@H](CC(C)C)NC(=O)[C@H](Cc1ccccc1)NC(=O)[C@H](CC(N)=O)NC(=O)[C@H](C)NC(=O)[C@H](CC(C)C)NC(=O)[C@H](CCCNC(=N)N)NC(=O)[C@H](CCC(N)=O)NC(=O)[C@@H](NC(=O)[C@H](C)NC(=O)[C@@H]1CSSC[C@H](NC(=O)[C@H](CCCCN)NC(=O)[C@@H](N)CCCCNC(=O)CC[C@H](NC(=O)CCCCCCCCCCCCCCCCC(=O)O)C(=O)O)C(=O)N[C@@H](CC(N)=O)C(=O)N[C@@H]([C@@H](C)O)C(=O)N[C@@H](C)C(=O)N[C@@H]([C@@H](C)O)C(=O)N1)[C@@H](C)O)C(=O)N[C@@H](CC(C)C)C(=O)N1CCC[C@H]1C(=O)N1CCC[C@H]1C(=O)N[C@H](C(=O)N[C@@H](CC(N)=O)C(=O)N[C@H](C(=O)NCC(=O)N[C@@H](CO)C(=O)N[C@@H](CC(N)=O)C(=O)N[C@H](C(=O)N[C@@H](Cc1ccc(O)cc1)C(N)=O)[C@@H](C)O)C(C)C)[C@@H](C)O [Peptide 126, K(γE-C18diacid)K[CNTATC]ATQRLANFL(Aib)HSS(Dab)NFGPILPPTNVGSNTY-amide] (H-K([γGlu-C18 diacid])KCNTATCATQRLANFL[Aib]HSS[Dab]NFGPILPPTNVGSNTY-NH2; disulfide 3-8)
25 | 1070 | 26300 | CC(C)C[C@H](NC(=O)[C@H](CCCNC(=N)N)NC(=O)[C@H](CCC(N)=O)NC(=O)[C@@H](NC(=O)[C@H](C)NC(=O)[C@@H]1CSSC[C@H](NC(=O)[C@H](CCCCN)NC(=O)[C@@H](N)CCCCNC(=O)CC[C@H](NC(=O)CCCCCCCCCCCCCCCCC(=O)O)C(=O)O)C(=O)N[C@@H](CC(N)=O)C(=O)N[C@@H]([C@@H](C)O)C(=O)N[C@@H](C)C(=O)N[C@@H]([C@@H](C)O)C(=O)N1)[C@@H](C)O)C(=O)N[C@@H](C)C(=O)N[C@@H](CC(N)=O)C(=O)N[C@@H](Cc1ccccc1)C(=O)N[C@@H](CC(C)C)C(=O)N[C@@H](CCCNC(=N)N)C(=O)N[C@@H](Cc1c[nH]cn1)C(=O)N[C@@H](CO)C(=O)N[C@@H](CO)C(=O)N[C@@H](CC(N)=O)C(=O)N[C@@H](CC(N)=O)C(=O)N[C@@H](Cc1ccccc1)C(=O)NCC(=O)N1CCC[C@H]1C(=O)NC(C)(C)C(=O)N[C@@H](CC(C)C)C(=O)N1CCC[C@H]1C(=O)N1CCC[C@H]1C(=O)N[C@H](C(=O)N[C@@H](CC(N)=O)C(=O)N[C@H](C(=O)NCC(=O)N[C@@H](CO)C(=O)N[C@@H](CC(N)=O)C(=O)N[C@H](C(=O)N[C@@H](Cc1ccc(O)cc1)C(N)=O)[C@@H](C)O)C(C)C)[C@@H](C)O [Peptide 107, K(γE-C18diacid)K[CNTATC]ATQRLANFLRHSSNNFGP(Aib)LPPTNVGSNTY-amide] (H-K([γGlu-C18 diacid])KCNTATCATQRLANFLRHSSNNFGP[Aib]LPPTNVGSNTY-NH2; disulfide 3-8; N-terminus assumed)
5 | 1330 | 6070 | CC[C@H](C)[C@H](NC(=O)[C@H](C)NC(=O)[C@@H]1C[C@@H](O)CN1C(=O)[C@H](Cc1ccccc1)NC(=O)[C@H](CC(N)=O)NC(=O)C(C)(C)NC(=O)[C@H](CO)NC(=O)[C@H](CO)NC(=O)[C@H](Cc1c[nH]cn1)NC(=O)[C@@H](NC(=O)[C@H](CC(C)C)NC(=O)[C@H](Cc1ccccc1)NC(=O)[C@H](CC(N)=O)NC(=O)[C@H](C)NC(=O)[C@H](CC(C)C)NC(=O)[C@H](CCCNC(=N)N)NC(=O)[C@H](CCC(N)=O)NC(=O)[C@@H](NC(=O)[C@H](C)NC(=O)[C@@H]1CSSC[C@H](NC(=O)[C@@H](N)CCCCNC(=O)CC[C@H](NC(=O)CC[C@H](NC(=O)CCCCCCCCCCCCCCCCCCC(=O)O)C(=O)O)C(=O)O)C(=O)N[C@@H](CC(N)=O)C(=O)N[C@@H]([C@@H](C)O)C(=O)N[C@@H](C)C(=O)N[C@@H]([C@@H](C)O)C(=O)N1)[C@@H](C)O)C(C)C)C(=O)N[C@@H](CC(C)C)C(=O)N[C@@H](CO)C(=O)N1CCC[C@H]1C(=O)N[C@H](C(=O)N[C@@H](CC(N)=O)C(=O)N[C@H](C(=O)NCC(=O)N[C@@H](CO)C(=O)N[C@@H](CC(N)=O)C(=O)N[C@H](C(=O)N[C@@H](Cc1ccc(O)cc1)C(N)=O)[C@@H](C)O)C(C)C)[C@@H](C)O [Peptide 121, K(γE-γE-C20diacid)[CNTATC]ATQRLANFLVHSS(Aib)NF(Hyp)AILSPTNVGSNTY-amide] (H-K([γGlu-γGlu-C20 diacid])CNTATCATQRLANFLVHSS[Aib]NF[Hyp]AILSPTNVGSNTY-NH2; disulfide 2-7; N-terminus assumed)
1 | 684 | 944 | CC[C@H](C)[C@H](NC(=O)[C@@H]1CCCN1C(=O)CNC(=O)[C@H](Cc1ccccc1)NC(=O)[C@H](CC(N)=O)NC(=O)[C@H](CC(N)=O)NC(=O)[C@H](CO)NC(=O)[C@H](CO)NC(=O)[C@H](Cc1c[nH]cn1)NC(=O)C(C)(C)NC(=O)[C@H](CC(C)C)NC(=O)[C@H](Cc1ccccc1)NC(=O)[C@H](CC(N)=O)NC(=O)[C@H](C)NC(=O)[C@H](CC(C)C)NC(=O)[C@H](CCCNC(=N)N)NC(=O)[C@H](CCC(N)=O)NC(=O)[C@@H](NC(=O)[C@H](C)NC(=O)[C@@H]1CSSC[C@H](NC(=O)[C@H](CCCCN)NC(=O)[C@@H](N)CCCCNC(=O)CC[C@H](NC(=O)CCCCCCCCCCCCCCCCC(=O)O)C(=O)O)C(=O)N[C@@H](CC(N)=O)C(=O)N[C@@H]([C@@H](C)O)C(=O)N[C@@H](C)C(=O)N[C@@H]([C@@H](C)O)C(=O)N1)[C@@H](C)O)C(=O)N[C@@H](CC(C)C)C(=O)N1CCC[C@H]1C(=O)NC(C)(C)C(=O)N[C@H](C(=O)N[C@@H](CC(N)=O)C(=O)N[C@H](C(=O)NCC(=O)N[C@@H](CO)C(=O)N[C@@H](CC(N)=O)C(=O)N[C@H](C(=O)N[C@@H](Cc1ccc(O)cc1)C(N)=O)[C@@H](C)O)C(C)C)[C@@H](C)O [Peptide 97, K(γE-C18diacid)K[CNTATC]ATQRLANFL(Aib)HSSNNFGPILP(Aib)TNVGSNTY-amide] (H-K([γGlu-C18 diacid])KCNTATCATQRLANFL[Aib]HSSNNFGPILP[Aib]TNVGSNTY-NH2; disulfide 3-8; N-terminus assumed)
